In one experiment the target is T1, HLA-DRB1*01:01 (Homo sapiens, UniProt P01903+P01911, A100R/D57E/F55L/F60I/F76Y/I96L/L162R/M171V/P40L/Q125E/R42F/V115G/Y59C).
T1 construct: EBV transformed homozygous cell lines were used as sources of MHC molecules; endogenous in cells; host or cells: EBV transformed homozygous cell lines
The experiment in a line: HLA class II peptide binding, inhibition of radiolabeled peptide binding to purified MHC.

In a further experiment the target is T2, HLA-DRB1*04:01 (Homo sapiens, UniProt P01903+P01911, A100K/A169T/F76Y/I96L/K127E/L162R/M171V/N62H/P40V/Q125Y/R42H/S133A/S149N/S66Y/V115G/V209L/W38E).
T2 construct: EBV transformed homozygous cell lines were used as sources of MHC molecules; endogenous in cells; host or cells: EBV transformed homozygous cell lines
The experiment is described as above.

Where [1] appears, read: citrullinated 15-mer (X), purified MHC, inhibition of radiolabeled peptide binding, dash = IC50 >40,000 nM, read-out: DRB1*01:01 binding capacity, Cit peptide (IC50 nM).
Where [2] appears, read: citrullinated 15-mer (X), purified MHC, inhibition of radiolabeled peptide binding, dash = IC50 >40,000 nM, read-out: DRB1*04:01 binding capacity, Cit peptide (IC50 nM).
Where [3] appears, read: read-out: DRB1*01:01 binding capacity, WT peptide (IC50 nM).
Setting [4] is: read-out: DRB1*04:01 binding capacity, WT peptide (IC50 nM).
Setting [5] is: wild-type (unmodified Arg) 15-mer peptide, purified HLA-DRB1*01:01, read-out: DRB1*01:01 binding capacity, WT peptide (IC50 nM).
Setting [6] is: wild-type (unmodified Arg) 15-mer peptide, purified HLA-DRB1*04:01, read-out: DRB1*04:01 binding capacity, WT peptide (IC50 nM).
Where [7] appears, read: citrullinated 15-mer peptide (X = citrulline), purified HLA-DRB1*01:01, read-out: DRB1*01:01 binding capacity, Cit peptide (IC50 nM).
Setting [8] is: citrullinated 15-mer peptide (X = citrulline), purified HLA-DRB1*04:01, read-out: DRB1*04:01 binding capacity, Cit peptide (IC50 nM).

One may read the IC50 as the midpoint of a concentration-inhibition curve.

Like-named read-outs stand apart in the source and are kept apart here. Square brackets hold non-standard residues; d marks the D form. Ends that are not written are not given here. Peptide text beside a SMILES is read from it. Cit = NC(=O)NCCC[C@H](N)C(=O)O

On to `CSCC[C@H](NC(=O)[C@H](CCC(=O)O)NC(=O)[C@H](CCC(=O)O)NC(=O)[C@H](CCC(=O)O)NC(=O)[C@H](Cc1ccc(O)cc1)NC(=O)[C@H](CC(C)C)NC(=O)[C@H](CC(=O)O)NC(=O)CNC(=O)[C@@H](N)CC(C)C)C(=O)N[C@@H](CCCNC(=N)N)C(=O)N[C@@H](CCC(=O)O)C(=O)N[C@@H](CC(C)C)C(=O)N[C@@H](CCCNC(=N)N)C(=O)N[C@@H](CCCNC(N)=O)C(=O)N[C@@H](CCC(N)=O)C(=O)O` [LGDLYEEEMRELRXQ], for which the IC50 on HLA-DRB1*01:01 (setting [1]) was 14800 nM; at HLA-DRB1*04:01 (setting [2]), greater than 40000 nM.

In the case of `CC(C)C[C@H](NC(=O)[C@H](CO)NC(=O)[C@H](Cc1ccccc1)NC(=O)[C@H](CC(=O)O)NC(=O)[C@@H](NC(=O)[C@H](CO)NC(=O)[C@H](CC(=O)O)NC(=O)[C@H](CCC(N)=O)NC(=O)[C@H](CC(C)C)NC(=O)[C@H](CC(C)C)NC(=O)[C@H](CCCNC(=N)N)NC(=O)[C@@H](NC(=O)CN)C(C)C)C(C)C)C(=O)N[C@@H](C)C(=O)N[C@@H](CC(=O)O)C(=O)O` [Vimentin 76 WT], the IC50 was 358 nM at HLA-DRB1*01:01 (setting [3]) and 596 nM on HLA-DRB1*04:01 (setting [4]).

Regarding GLPGAPGLRGLPGKD [Collagen 621 WT], the IC50 on HLA-DRB1*01:01 (setting [5]) was 810 nM; at HLA-DRB1*04:01 (setting [6]), greater than 40000 nM.

Take `CC(C)C[C@H](NC(=O)CNC(=O)[C@H](CCCNC(=N)N)NC(=O)[C@H](CCC(=O)O)NC(=O)CNC(=O)[C@@H]1CCCN1C(=O)[C@H](CCC(=O)O)NC(=O)CNC(=O)[C@H](C)N)C(=O)N[C@@H](CCCCN)C(=O)NCC(=O)N[C@@H](Cc1c[nH]cn1)C(=O)N[C@@H](CCCNC(N)=O)C(=O)NCC(=O)N[C@@H](Cc1ccccc1)C(=O)O` [AGEPGERGLKGHXGF] (H-AGEPGERGLKGH[Cit]GF-OH): the IC50 was 594 nM at HLA-DRB1*01:01 (setting [7]) and greater than 40000 nM on HLA-DRB1*04:01 (setting [8]).

For ANYQDTIGRLQDEIQ [Vimentin 356 WT], the results for the concentration for half-maximal inhibition (IC50) on HLA-DRB1*01:01 (setting [5]) and on HLA-DRB1*04:01 (setting [6]) were 625 nM and 11500 nM, respectively.

In the case of MALDIEIATYRKLLE [Vimentin 391 WT], the IC50 on HLA-DRB1*01:01 (setting [5]) was determined as 86 nM; at HLA-DRB1*04:01 (setting [6]), 5590 nM.

As for `CSCC[C@H](NC(=O)[C@H](CCCNC(N)=O)NC(=O)[C@H](CCCNC(=N)N)NC(=O)[C@H](Cc1ccc(O)cc1)NC(=O)[C@H](CO)NC(=O)[C@H](CO)NC(=O)[C@H](CO)NC(=O)[C@H](CO)NC(=O)[C@@H](N)C(C)C)C(=O)N[C@@H](Cc1ccccc1)C(=O)NCC(=O)NCC(=O)N1CCC[C@H]1C(=O)NCC(=O)N[C@H](C(=O)O)[C@@H](C)O` [VSSSSYRXMFGGPGT] (H-VSSSSYR[Cit]MFGGPGT-OH), the IC50 at HLA-DRB1*01:01 (setting [1]) was determined as 60 nM; at HLA-DRB1*04:01 (setting [2]), 974 nM.

For `CC(C)C[C@H](NC(=O)[C@H](CC(=O)O)NC(=O)[C@H](C)NC(=O)[C@H](Cc1ccccc1)NC(=O)[C@H](CCCCN)NC(=O)[C@H](CO)NC(=O)[C@H](CCCCN)NC(=O)[C@@H](N)Cc1ccc(O)cc1)C(=O)N[C@@H](CO)C(=O)N[C@@H](CCC(=O)O)C(=O)N[C@@H](C)C(=O)N[C@@H](C)C(=O)N[C@@H](CC(N)=O)C(=O)N[C@@H](CCCNC(N)=O)C(=O)N[C@@H](CC(N)=O)C(=O)O` [YKSKFADLSEAANXN] (H-YKSKFADLSEAAN[Cit]N-OH), the IC50 at HLA-DRB1*01:01 (setting [1]) was 292 nM; on HLA-DRB1*04:01 (setting [2]), 1110 nM.

As to ADLSEAANRNNDALR [Vimentin 296 WT], the IC50 on HLA-DRB1*01:01 (setting [3]) worked out at 4500 nM; on HLA-DRB1*04:01 (setting [4]), 13900 nM.

Take `CC(C)C[C@H](NC(=O)[C@@H](NC(=O)[C@H](C)NC(=O)[C@H](C)NC(=O)[C@@H](NC(=O)[C@@H](N)CC(C)C)C(C)C)C(C)C)C(=O)N[C@@H](CCCNC(N)=O)C(=O)N[C@@H](CS)C(=O)N[C@@H](CCC(N)=O)C(=O)NCC(=O)N[C@@H](CCC(N)=O)C(=O)N[C@@H](CC(=O)O)C(=O)N[C@H](C(=O)N[C@@H](CCC(N)=O)C(=O)N[C@@H](CCC(=O)O)C(=O)O)C(C)C` [LVAAVLXCQGQDVQE] (H-LVAAVL[Cit]CQGQDVQE-OH): the half-inhibitory concentration (IC50) at HLA-DRB1*01:01 (setting [7]) worked out at 93 nM; on HLA-DRB1*04:01 (setting [8]), 32700 nM.

(Values after paper PMC5421785, “Citrullination only infrequently impacts peptide binding to HLA class II MHC” (PLoS ONE, 2017).)
